Results published in patent US8242087B2, “Phosphate modified nucleosides useful as substrates for polymerases and as antiviral agents” (priority 2007, dated 2012).

Experiments:
[1] = target: T1, Therminator DNA polymerase (Thermococcus sp., UniProt Q56366, A485L/D141A/E143A); test: Single nucleotide incorporation by Therminator DNA polymerase; assay type: biochemical, (9° N-7) Thermococcus sp.; settings: single nucleotide incorporation, P1/T1
T1 construct: purchased Westburg (NEB)
Method: In the case of Therminator DNA polymerase, the enzyme was obtained from Westburg (NEB) (2 U/μL) and the reactions were carried out in a 10× Thermopol reaction buffer containing 20 mM TRIS.HCl, 10 mM KCl, 2 mM MgSO4, 0.1% Triton X-100, pH 8.8. The final concentration of the Therminator DNA pol in the reaction mixture was 8.33×10^−4 U/μL. The polymerase reaction involving Therminator DNA polymerase or any other thermostable polymerase (Vent (exo^−), Taq DNA polymerase) was carried out in a similar way as the HIV RT reaction with some modifications. The dNTP solutions and the primer/template/DNA polymerase mixture solutions were topped with mineral oil (30-60 μL) and pre-incubated at 70° C. for 2 minutes. The polymerase reactions were performed at 70° C. as well.

[2] = target: T2, HIV reverse transcriptase (HIV RT) (Human immunodeficiency virus type 1 group M subtype B, UniProt P03366); test: Single nucleotide incorporation by HIV RT, gel-based, P1/T1 (Examples 2-3); assay type: biochemical, HIV-1; settings: same conditions (500 μM, 60 min)
T2 construct: HIV RT polymerase was purchased from GE Healthcare; purchased GE Healthcare (Amersham Bioscience)
Method: (§1) A typical single nucleotide incorporation and primer extension assays using HIV RT polymerase was carried out similar to one described in the literature. HIV RT polymerase was purchased from GE Healthcare and was supplied as either 12 or 30 U/μL stock solution. The final concentration of HIV RT in a reaction mixture was 0.03-0.003 U/μL. A primer/template duplex mixture was prepared by combining appropriate amounts of a 5′-^33P-labeled primer (P1) and a template in 1:2 molar ratio to provide a 4× solution with 0.5 μM primer concentration. The polymerase reactions were carried out in a 5×RT buffer containing 250 mM TRIS.HCL, 250 mM KCl, 50 mM MgCl2, 2.5 mM spermidine, 50 mM DTT, pH 8.3. For the single nucleotide incorporation assay, a P1/T1 primer-template pair was used whereas the primer extension study was performed with P1/T3 and P1/T5 primer-template pairs.
Briefly, a mixture containing 5 μL of the 4× primer/DNA duplex solution and 5 μL of 4× polymerase solution was pre-incubated at 37° C. for 2 minutes to ensure formation a DNA polymerase/DNA duplex complex. Simultaneously, 2× solutions of dNTP to provide final concentrations of 100 μM, 200 μM, 500 μM and 1 mM were also pre-incubated at 37° C. for 2 minutes as well. The polymerase reaction in a total volume of 20 μL was initiated by addition of 10 μL of the 2× dNTP solution to the DNA polymerase/DNA duplex mixture. The reactions were run at 37° C. and aliquots (2.5 μL) were removed at specified time points and mixed with 10 μL of a quenching buffer containing 80% formamide, 2 mM EDTA, 1×TBE. Quenched reactions were analyzed by loading 2 μL of a reaction sample onto a 20% denaturing polyacrylamide:gel (19:1 acrylamide:bisacrylamide, 7M urea, 0.4 mm×30 cm×40 cm) made in 1×TBE buffer (90 mM Tris-borate, 2 mM EDTA, pH 8.3). The gel was pre-equilibrated for 2 hours before loading and the reactions were run along with a tracking dye marker containing bromophenol blue (BB) and xylene cyanol (XC) until the BB dye had run ⅔ of the total gel length. For visualization, gels were scanned using a Cyclone Phosphoroimager.

HIV RT = target: T3, HIV RT (Human immunodeficiency virus type 1 group M subtype B, UniProt P03366); test: Primer extension by HIV RT (P1/T3, P1/T5); assay type: biochemical, HIV-1; settings: one hour, 500 μM
T3 construct: HIV RT polymerase was purchased from GE Healthcare; purchased GE Healthcare (Amersham Bioscience)
Method: as §1
Primer extension study with HIV RT and Therminator DNA polymerase was performed in a fashion similar to the single nucleotide incorporation experiments. Two sets of primer/template complexes were used: P1/T3 and P1/T5.

[3] = target: T4, HIV-1 Reverse Transcriptase (Human immunodeficiency virus type 1 group M subtype B, UniProt P03366); test: Single incorporation into P1T1 by HIV-1 Reverse Transcriptase (Examples 6, 7, 9); assay type: biochemical
T4 construct: performed with the enzyme HIV-1 RT (Ambion, 10 U/μL stock solution); purchased Ambion
Method: HIV-1 Reverse Transcriptase serves, in the HIV-1 viral replication process, as a catalyst and uses deoxynucleotides as substrates. This polymerase is error-prone and thus has a high mutation rate. Here, we evaluated the capacity to incorporate a deoxyadenosine nucleoside into the primer-template complex P1T1 using HIV-1 RT, and some of the above described illustrative compounds of the invention, carrying different leaving groups, as substrates. The initial screening was carried out using a template with an overhang of one thymidine nucleotide followed by three non-pyrimidine bases (Table 1). Incorporation efficiency was analysed by the polyacrylamide gel-based single nucleotide incorporation assay.
End-labeled primer was annealed to its template by combining primer and template in a molar ratio of 1:2 and heating the mixture to 70° C. for 10 minutes followed by slow cooling to room temperature over a period of 1.5 hour. For the incorporation of 1, 2, 3, 4, 5 and 6, a series of 20 μL-batch reactions was performed with the enzyme HIV-1 RT (Ambion, 10 U/μL stock solution, specific activity 8.095 U/mg, concentration 1.2 mg/mL). The final mixture contained 125 nM primer template complex, RT buffer (250 mM Tris.HCl, 250 mM KCl, 50 mM MgCl2, 2.5 mM spermidine, 50 mM dithiothreitol (DTT); pH 8.3), 0.025 U/μL HIV-1 RT, and different concentrations of phosphoramidate or phosphodiester building blocks (1 mM, 500 μM, 200 μM and 100 μM respectively). In the case of the aromatic phosphate-modified nucleosides 23 and 24, the range of concentrations was limited to 1 mM. In the control reaction with the natural nucleotide, a 10 μM dATP concentration was used. The mixture was incubated at 37° C. and 2.5 μL aliquots were quenched after 5, 10, 20, 30, 60 and 120 minutes.

T1 sequence (Q56366 whole entry D141A/E143A/A485L): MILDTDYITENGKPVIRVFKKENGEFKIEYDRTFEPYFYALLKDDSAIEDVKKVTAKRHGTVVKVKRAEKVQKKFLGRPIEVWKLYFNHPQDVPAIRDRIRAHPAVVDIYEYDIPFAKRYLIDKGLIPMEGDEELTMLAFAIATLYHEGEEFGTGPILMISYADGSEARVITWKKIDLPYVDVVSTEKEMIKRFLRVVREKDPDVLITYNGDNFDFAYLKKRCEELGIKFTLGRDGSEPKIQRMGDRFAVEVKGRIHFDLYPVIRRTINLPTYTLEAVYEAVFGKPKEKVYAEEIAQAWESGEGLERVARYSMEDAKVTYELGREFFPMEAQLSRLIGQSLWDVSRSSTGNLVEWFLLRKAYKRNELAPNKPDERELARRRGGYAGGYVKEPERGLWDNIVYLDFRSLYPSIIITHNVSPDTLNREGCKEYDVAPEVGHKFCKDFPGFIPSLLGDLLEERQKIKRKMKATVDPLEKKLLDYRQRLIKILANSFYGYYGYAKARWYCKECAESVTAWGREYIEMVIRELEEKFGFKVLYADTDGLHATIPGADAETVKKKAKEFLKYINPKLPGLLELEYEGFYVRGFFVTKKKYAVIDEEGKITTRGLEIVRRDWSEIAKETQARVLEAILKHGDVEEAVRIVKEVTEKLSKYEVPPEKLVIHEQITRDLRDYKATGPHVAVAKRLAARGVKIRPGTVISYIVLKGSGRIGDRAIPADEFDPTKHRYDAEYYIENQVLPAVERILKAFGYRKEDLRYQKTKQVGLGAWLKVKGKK

Nc1ncnc2c1ncn2[C@H]1C[C@H](O)[C@@H](COP(=O)(O)NCC2CO2)O1 (stereo partly drawn) [Compound 3, 2′-deoxy-adenosine-5′-glycidyl-phosphoramidate]
incorporation as Therminator DNA polymerase substrate [1]: act effectively as alternative substrates
incorporation, fold less efficient than Asp-dAMP [2]: 6.5 fold
primer strand extension efficiency (HIV RT): low efficiency

Nc1ncnc2c1ncn2[C@H]1C[C@H](O)[C@@H](COP(=O)(O)Nc2cc(C(=O)O)cc(C(=O)O)c2)O1 [Compound 23, 2′-deoxyadenosine-5′(5-aminoisophthalic acid) phosphoramidate]
recognition as substrate ([3]; 1 mM): less well recognized as substrate

Nc1ncnc2c1ncn2[C@H]1C[C@H](O)[C@@H](COP(=O)(O)Oc2cc(C(=O)O)cc(C(=O)O)c2)O1 [Compound 22, 2′-deoxyadenosine-5′-(5-hydroxy-isophthalic acid) phosphodiester]
conversion to an n+1 strand ([3]; 2 hours, 1 mM concentration): 90-92%

Nc1ncnc2c1ncn2[C@H]1C[C@H](O)[C@@H](COP(=O)(O)OCC(=O)O)O1 [GA-dAMP, 2′-deoxyadenosine-5′-(glycolic acid) phosphodiester]
n+1 formation ([3]; 500 μM): up to 68%
